According to patent US20180305334A1, “COMPOUNDS, COMPOSITIONS AND METHODS OF USE AGAINST STRESS GRANULES” (Aquinnah Pharmaceuticals, Inc., priority 2015, published 2018):

Tested on: TDP-43 aggregation in PC12 cells stably expressing TDP-43^Q331K::eGFP
Assay: In vitro efficacy assay, TDP-43 aggregation concentration-response
Assay type: cell-based
Settings: PC12 TDP-43^Q331K::eGFP, 1 hour pre-treatment, 15 μM sodium arsenite for 23 hours, 10-point dose response
Protocol: Exemplary compounds of the invention were evaluated for efficacy in inhibiting TDP-43 inclusions using a concentration-response assay. Briefly, PC12 cells stably expressing a GFP-tagged mutant form of TDP-43 (TDP-43^Q331K::eGFP) were pre-treated for 1 hour with exemplary compounds and stressed with 15 μM sodium arsenite for 23 hours to induce TDP-43 aggregation. The inhibitory effect on TDP-43 aggregation was measured using fluorescence microscopy. The ratio of cells with TDP-43 aggregates was calculated based on the total number of cells with detectable GFP expression.

[1] = Rattus norvegicus, PC-12, inhibition of TDP-43 aggregation

Compound	IC50 [1] [nM]	IC50 (inhibition of TDP-43 aggregation) [nM]
CCN(CC1CCCN(CCc2ccccc2F)C1)C(=O)c1cc2ccccc2[nH]1 (centres unmarked) [Compound 123]	1500 to 4000	–
CCN(CC1CCCN(CCc2ccccc2OC)C1)C(=O)c1cc2ccccc2[nH]1 (centres unmarked) [Compound 124]	4000 to 7000	–
COc1cccc(CCN2CCCC(CNC(=O)c3cc4ccccc4[nH]3)C2)c1 (centres unmarked) [Compound 125]	< 1500	–
CCN(CC1CCCN(CCc2ccc(F)cc2)C1)C(=O)c1cc2ccccc2[nH]1 (centres unmarked) [Compound 126]	> 10000	–
CCN(CC1CCCN(CCc2ccc(OC)cc2)C1)C(=O)c1cc2ccccc2[nH]1 (centres unmarked) [Compound 127]	< 1500	–
CCN(CC1CCCN(CCc2ccc(Cl)cc2)C1)C(=O)c1cc2ccccc2[nH]1 (centres unmarked) [Compound 128]	< 1500	–
CCN(CC1CCCN(Cc2ccccc2Cl)C1)C(=O)c1cc2ccccc2[nH]1 (centres unmarked) [Compound 129]	> 10000	–
CCN(CC1CCCN(Cc2ccccc2C#N)C1)C(=O)c1cc2ccccc2[nH]1 (centres unmarked) [Compound 130]	1500 to 4000	–
CCN(CC1CCCN(Cc2cccc(F)c2)C1)C(=O)c1cc2ccccc2[nH]1 (centres unmarked) [Compound 131]	> 10000	–
CCN(CC1CCCN(Cc2ccccc2)C1)C(=O)c1cc2ccccc2[nH]1 (centres unmarked) [Compound 132]	1500 to 4000	–
CCN(CC1CCCN(Cc2cccc(C#N)c2)C1)C(=O)c1cc2ccccc2[nH]1 (centres unmarked) [Compound 133]	1500 to 4000	–
CCN(CC1CCCN(Cc2cccc(Cl)c2)C1)C(=O)c1cc2ccccc2[nH]1 (centres unmarked) [Compound 134]	1500 to 4000	–
CCN(CC1CCCN(Cc2ccc(F)cc2)C1)C(=O)c1cc2ccccc2[nH]1 (centres unmarked) [Compound 135]	< 1500	–
CCN(CC1CCCN(Cc2ccc(OC)cc2)C1)C(=O)c1cc2ccccc2[nH]1 (centres unmarked) [Compound 137]	1500 to 4000	–
CCN(CC1CCCN(Cc2ccc(Cl)cc2)C1)C(=O)c1cc2ccccc2[nH]1 (centres unmarked) [Compound 138]	< 1500	–
CCN(CC1CCCN(CCc2ccccc2Cl)C1)C(=O)c1cc2ccccc2[nH]1 (centres unmarked) [Compound 139]	1500 to 4000	–
CCN(CC1CCCN(CCc2cccc(F)c2)C1)C(=O)c1cc2ccccc2[nH]1 (centres unmarked) [Compound 140]	< 1500	–
CCN(CC1CCCN(CCc2cccc(Cl)c2)C1)C(=O)c1cc2ccccc2[nH]1 (centres unmarked) [Compound 141]	< 1500	–
CCN(CC1CCCN(CCc2ccc(C#N)cc2)C1)C(=O)c1cc2ccccc2[nH]1 (centres unmarked) [Compound 142]	> 10000	–
COc1cccc(CCN2CCCC(CN(C(=O)c3cc4ccccc4[nH]3)C(C)C)C2)c1 (centres unmarked) [Compound 143]	< 1500	–
COc1cccc(CCN2CCCC(CN(C(=O)c3cc4ccccc4[nH]3)c3ccccc3)C2)c1 (centres unmarked) [Compound 144]	< 1500	–
CCN(CC1CCCN(CCc2ccc3c(c2)OCC3)C1)C(=O)c1cc2ccccc2[nH]1 (centres unmarked) [Compound 145]	1500 to 4000	–
CCN(CC1CCCN(CCc2ccc3c(c2)OCO3)C1)C(=O)c1cc2ccccc2[nH]1 (centres unmarked) [Compound 146]	1500 to 4000	–

Compound	IC50 [1] [nM]	IC50 (inhibition of TDP-43 aggregation) [nM]
CCN(CC1CCCN(CCc2ccccc2C#N)C1)C(=O)c1cc2ccccc2[nH]1 (centres unmarked) [Compound 147]	> 10000	–
CCN(CC1CCCN(Cc2ccc(Cl)cc2)C1)C(=O)c1cc2cc(OC)ccc2[nH]1 (centres unmarked) [Compound 148]	< 1500	–
CCN(CC1CCCN(Cc2ccc(OC)cc2)C1)C(=O)c1cc2cc(OC)ccc2[nH]1 (centres unmarked) [Compound 149]	< 1500	–
CCN(CC1CCCN(Cc2ccc(Cl)cc2)C1)C(=O)c1cc2cc(F)ccc2[nH]1 (centres unmarked) [Compound 150]	< 1500	–
CCN(CC1CCCN(Cc2ccc(OC)cc2)C1)C(=O)c1cc2cc(F)ccc2[nH]1 (centres unmarked) [Compound 151]	< 1500	–
CCN(CC1CCCN(Cc2ccc(Cl)cc2)C1)C(=O)c1cc2cc(OC)c(OC)cc2[nH]1 (centres unmarked) [Compound 152]	> 10000	–
CCN(CC1CCCN(Cc2ccc(Cl)cc2)C1)C(=O)c1cc2c(Cl)cc(Cl)cc2[nH]1 (centres unmarked) [Compound 153]	1500 to 4000	–
CCN(CC1CCCN(Cc2ccc(OC)cc2)C1)C(=O)c1cc2c(Cl)cc(Cl)cc2[nH]1 (centres unmarked) [Compound 154]	1500 to 4000	–
CCN(CC1CCCN(Cc2ccc(Cl)cc2)C1)C(=O)c1cc2ccc(C)cc2[nH]1 (centres unmarked) [Compound 155]	1500 to 4000	–
CCN(CC1CCCN(Cc2ccc(OC)cc2)C1)C(=O)c1cc2ccc(C)cc2[nH]1 (centres unmarked) [Compound 156]	1500 to 4000	–
CCN(CC1CCCN(Cc2ccc(Cl)cc2)C1)C(=O)c1cc2cccc(F)c2[nH]1 (centres unmarked) [Compound 157]	> 10000	–
CCN(CC1CCCN(Cc2ccc(OC)cc2)C1)C(=O)c1cc2cccc(F)c2[nH]1 (centres unmarked) [Compound 158]	4000 to 7000	–
CCN(CC1CCCN(Cc2ccc(Cl)cc2)C1)C(=O)c1cc2ccc(OC)cc2[nH]1 (centres unmarked) [Compound 159]	1500 to 4000	–
CCN(CC1CCCN(Cc2ccc(Cl)cc2)C1)C(=O)c1cc2cc(Cl)ccc2[nH]1 (centres unmarked) [Compound 160]	< 1500	–
CCN(CC1CCCN(Cc2ccc(OC)cc2)C1)C(=O)c1cc2cc(Cl)ccc2[nH]1 (centres unmarked) [Compound 161]	< 1500	–
CCN(CC1CCCN(Cc2ccc(OC)cc2)C1)C(=O)c1cc2ccc(OC)cc2[nH]1 (centres unmarked) [Compound 162]	1500 to 4000	–
CCN(CC1CCCN(Cc2ccc(Cl)cc2)C1)C(=O)c1cc2c(OC)cccc2[nH]1 (centres unmarked) [Compound 163]	< 1500	–
CCN(CC1CCCN(Cc2ccc(Cl)cc2)C1)C(=O)c1cc2ccc(Cl)cc2[nH]1 (centres unmarked) [Compound 164]	1500 to 4000	–
CCN(CC1CCCN(Cc2ccc(Cl)cc2)C1)C(=O)c1cc2c(F)cccc2[nH]1 (centres unmarked) [Compound 165]	1500 to 4000	–
CCN(CC1CCCN(Cc2ccc(OC)cc2)C1)C(=O)c1cc2c(F)cccc2[nH]1 (centres unmarked) [Compound 166]	> 10000	–
CCN(CC1CCCN(Cc2ccc(Cl)cc2)C1)C(=O)c1cc2ccc(Cl)cc2[nH]1 (centres unmarked) [Compound 167]	–	< 1500
CCN(CC1CCCN(Cc2ccc(OC)cc2)C1)C(=O)c1cc2ccc(Cl)cc2[nH]1 (centres unmarked) [Compound 168]	< 1500	–
CCN(CC1CCCN(Cc2ccc(Cl)cc2)C1)C(=O)c1cc2c(F)cc(F)cc2[nH]1 (centres unmarked) [Compound 169]	< 1500	–

Compound	IC50 [1] [nM]	IC50 (inhibition of TDP-43 aggregation) [nM]
CCN(CC1CCCN(Cc2ccc(OC)cc2)C1)C(=O)c1cc2c(F)cc(F)cc2[nH]1 (centres unmarked) [Compound 170]	< 1500	–
CCN(CC1CCCN(Cc2ccc(OC)cc2)C1)C(=O)c1cc2cc(F)c(F)cc2[nH]1 (centres unmarked) [Compound 171]	< 1500	–
CCN(CC1CCCN(Cc2ccc(Cl)cc2)C1)C(=O)c1cc2cc(F)c(F)cc2[nH]1 (centres unmarked) [Compound 172]	1500 to 4000	–
CCN(CC1CCCN(Cc2ccc(Cl)cc2)C1)C(=O)c1cc2cc(OCc3ccccc3)ccc2[nH]1 (centres unmarked) [Compound 173]	1500 to 4000	–
CCN(CC1CCCN(Cc2ccc(OC)cc2)C1)C(=O)c1cc2cc(OCc3ccccc3)ccc2[nH]1 (centres unmarked) [Compound 174]	1500 to 4000	–
CCN(CC1CCCN(Cc2cccc(OC(F)(F)F)c2)C1)C(=O)c1cc2cc(OC(F)(F)F)ccc2[nH]1 (centres unmarked) [Compound 175]	> 10000	–
CCN(CC1CCCN(Cc2ccc(OC(F)(F)F)cc2)C1)C(=O)c1cc2cc(OC(F)(F)F)ccc2[nH]1 (centres unmarked) [Compound 176]	> 10000	–
CCN(CC1CCCN(Cc2cccc(OC(F)F)c2)C1)C(=O)c1cc2cc(OC(F)F)ccc2[nH]1 (centres unmarked) [Compound 177]	< 1500	–
CCN(CC1CCCN(Cc2ccc(OC(F)F)cc2)C1)C(=O)c1cc2cc(OC(F)F)ccc2[nH]1 (centres unmarked) [Compound 178]	< 1500	–
CCN(CC1CCCN(CCc2cccc(OC(F)(F)F)c2)C1)C(=O)c1cc2cc(OC(F)(F)F)ccc2[nH]1 (centres unmarked) [Compound 179]	4000 to 7000	–
CCN(CC1CCCN(CCc2cccc(OC(F)F)c2)C1)C(=O)c1cc2cc(OC(F)F)ccc2[nH]1 (centres unmarked) [Compound 180]	> 10000	–
CCN(CC1CCCN(CCc2cc3ccccc3o2)C1)C(=O)c1cc2ccccc2[nH]1 (centres unmarked) [Compound 181]	7000 to 9900	–
CCN(CC1CCCN(S(=O)(=O)c2ccc(OC)cc2)C1)C(=O)c1cc2ccccc2[nH]1 (centres unmarked) [Compound 200]	1500 to 4000	–
CCN(CC1CCCN(C(=O)Cc2ccc(OC)cc2)C1)C(=O)c1cc2ccccc2[nH]1 (centres unmarked) [Compound 201]	< 1500	–
CCN(CC1CCCN(Cc2cc3ccccc3o2)C1)C(=O)c1cc2cc(OC)ccc2[nH]1 (centres unmarked) [Compound 203]	1500 to 4000	–
CCN(CC1CCCN(Cc2cc3ccccc3o2)C1)C(=O)c1cc2c(OC)cccc2[nH]1 (centres unmarked) [Compound 204]	< 1500	–
CCN(CC1CCCN(Cc2cc3ccccc3o2)C1)C(=O)c1cc2c(F)cc(F)cc2[nH]1 (centres unmarked) [Compound 205]	1500 to 4000	–
CCN(CC1CCCN(Cc2cc3ccccc3o2)C1)C(=O)c1cc2ccccc2[nH]1 (centres unmarked) [Compound 206]	< 1500	–
CCN(CC1CCCN(C2CCc3ccccc32)C1)C(=O)c1cc2ccccc2[nH]1 (centres unmarked) [Compound 207]	< 1500	–
CCN(CC1CCCN(C2CCc3ccccc3C2)C1)C(=O)c1cc2ccccc2[nH]1 (centres unmarked) [Compound 208]	4000 to 7000	–
CCN(CC1CCCN(C2Cc3ccccc3C2)C1)C(=O)c1cc2ccccc2[nH]1 (centres unmarked) [Compound 209]	4000 to 7000	–
CCN(CC1CCCN(C2CCc3ccc(OC)cc3C2)C1)C(=O)c1cc2ccccc2[nH]1 (centres unmarked) [Compound 210]	> 10000	–
